The structures appear in SMILES notation. Where a name gives a salt, the structure may show the parent alone.

We go through 72 molecules from the RepoRT retention time repository (doi:10.1016/j.aca.2011.12.065).

The nature of the first data set: RP, Waters ACQUITY UPLC HSS T3, 100 × 2.1 mm, 1.8 µm; A: water + 0.1% formic acid, pH 3; B: 30% methanol + 70% acetonitrile + 0.1% formic acid, pH 3; gradient (min/%B) 0.0/5 1.0/8 2.0/15 3.0/40 4.0/70 4.5/100 5.0/100 6.4/100 6.6/5.0 6.8/5.0 7.0/5.0. To be noted: stereoisomer not certain.
As for `O=c1[nH]cc(C2OC(CO)C(O)C2O)c(=O)[nH]1` (stereo not given), the LC retention time was found to be 0.743 min.

With `NC(CCCNC1=NCC(=O)N1)C(=O)O` (stereo not given), the LC retention time came to 0.459 min.

As to `CC1NC(=NCCCC(N)C(=O)O)NC1=O` (stereo not given), the LC retention time was found to be 0.484 min. On to `Nc1c(O)cccc1C(=O)CC(N)C(=O)O` (racemic) [3-hydroxy-dl-kynurenine], for which the LC retention time was determined as 0.786 min.

On to `NC(CCCC(=O)O)C(=O)O` (racemic) [dl-2-aminoadipic acid], for which the LC retention time was found to be 0.51 min. Take `O=C(O)C(O)Cc1c[nH]c2ccccc12` (racemic) [dl-3-indolelactic acid]: the LC retention time stood at 3.52 min.

For `CN1C(=O)CCC1c1cccnc1` (single isomer, unassigned; (-)) [(-)-Cotinine], the LC retention time came out at 0.793 min.

Regarding `Cn1c(=O)[nH]c2ncn(C)c2c1=O` [1,7-dimethylxanthine], the LC retention time was 2.56 min.

As to `Cn1cnc(C[C@H](N)C(=O)O)c1` [1-Methyl-L-Histidine], the LC retention time worked out at 0.425 min. On to `Cn1cnc2c(ncn2C2OC(CO)C(O)C2O)c1=N` (stereo not given) [1-methyladenosine], for which the LC retention time came to 1.63 min.

For the molecule `Cn1c(=O)[nH]c2[nH]c(=O)[nH]c2c1=O` [1-methyluric acid], the LC retention time was found to be 1.27 min. As to `NC(CCCC(N)C(=O)O)C(=O)O` (stereo not given) [2,6-diaminopimelic acid], the LC retention time came out at 0.44 min.

For `Nc1ccn(C2OC(CO)C(O)C2O)c(=S)n1` (stereo not given) [2-thiocytidine dihydrate], the LC retention time is 0.619 min. With `CC(C)(O)CC(=O)O` [3-hydroxy-3-methyl butanoic acid], the LC retention time amounted to 1.63 min.

On to `Cn1c(=N)ccn(C2OC(CO)C(O)C2O)c1=O` (stereo not given) [3-methylcytidine methosulfate], for which the LC retention time is 0.619 min. For the molecule `Cn1c(=O)[nH]c(=O)c2[nH]cnc21` [3-methylxanthine], the LC retention time is 1.45 min. Consider `CC(=O)Nc1ccc(C(=O)O)cc1` [4-acetamidobenzoic acid], for which the LC retention time came to 3.23 min. Regarding `O=Cc1ccc(O)cc1` [4-hydroxybenzaldehyde], the LC retention time worked out at 3.3 min.

Turning to `Cc1cn(C2OC(CO)C(O)C2O)c(=O)nc1N` (stereo not given) [5-methylcytidine], the LC retention time came to 1.18 min. On to `COc1cc2c(CCNC(C)=O)c[nH]c2cc1O` [6-hydroxymelatonin], for which the LC retention time stood at 3.4 min. On the same count and under the same terms, the same measure for `Cn1c[n+](C2OC(CO)C(O)C2O)c2nc(N)[nH]c(=O)c21` (stereo not given) [7-methylguanosine]: 0.688 min.

Consider `Cn1c(=O)[nH]c2[nH]c(=O)[nH]c(=O)c21` [7-methyluric acid], for which the LC retention time was 1.08 min. Same read-out and setting: the same measure for `Cn1cnc2[nH]c(=O)[nH]c(=O)c21` [7-methylxanthine]: 1.25 min; for `O=C(O)C(O)Cc1ccc(O)cc1` (stereo not drawn) [(DL)-p-hydroxyphenyllactic acid]: 2.66 min. For `Nc1ncnc2nc[nH]c12` [Adenine], the LC retention time was found to be 0.538 min. Regarding `Nc1ncnc2c1ncn2C1OC(CO)C(O)C1O` (stereo not given) [Adenosine], the LC retention time amounted to 0.857 min.

As for `O=C(O)CCCCC(=O)O` [Adipic acid], the LC retention time was 2.33 min.

For `O=C1OC(C(O)CO)C(O)=C1O` (stereo not given) [Ascorbic acid], the LC retention time was determined as 0.561 min. With `O=C(O)CCCCCCCC(=O)O` [Azelaic acid], the LC retention time is 3.63 min.

With `CC(NCCCCC(N)C(=O)O)C(=O)O` (stereo not given) [CEL], the LC retention time came out at 0.459 min. Regarding `Cn1c(=O)c2c(ncn2C)n(C)c1=O` [Caffeine], the LC retention time came to 3.13 min. In the case of `O=C(O)C1OC(Oc2ccccc2O)C(O)C(O)C1O` (stereo not given) [Pyrocatechol glucuronide], the LC retention time is 2.81 min. For the molecule `C[N+](C)(C)[O-]` [TMAO], the LC retention time was determined as 0.468 min.

In the case of `CC(=O)Nc1c(N)[nH]c(=O)n(C)c1=O` [aamu], the LC retention time turned out to be 0.666 min.

With `C=CCS(=O)CC(N)C(=O)O` (stereo not given) [aliin], the LC retention time stood at 0.638 min.

For the molecule `NC(=O)NC(NC(N)=O)C(=O)O` [allantoic acid], the LC retention time was determined as 0.491 min.

For the molecule `CC(C)C(=O)C(=O)O` [alpha-ketoisovaleric acid], the LC retention time was 1.92 min. Turning to `Cn1cncc1CC(NC(=O)CCN)C(=O)O` (stereo not given) [anserine], the LC retention time was determined as 0.441 min. On to `NC(CC(=O)O)C(=O)NC(Cc1ccccc1)C(=O)O` (stereo not given) [asp-phe], for which the LC retention time amounted to 2.67 min. `NCCC(=O)NC(Cc1cnc[nH]1)C(=O)O` (stereo not given) [carnosine]: the LC retention time stood at 0.437 min.

For the molecule `CCCc1oc(CCC(=O)O)c(C(=O)O)c1C` [cmpf], the LC retention time worked out at 4.08 min. For `CC(C)C1NC(=O)C2CCCN2C1=O` (stereo not given) [cyclo-(pro-val)], the LC retention time is 3.1 min. As to `OCC(O)C(O)C(O)C(O)CO` (stereo not drawn) [d(-)-mannitol], the LC retention time came to 0.483 min.

As to `O=C(O)C(O)c1ccc(O)c(O)c1` (stereo not given) [dihydroxymandelic acid], the LC retention time came out at 0.829 min. Regarding `NCCc1ccc(O)c(O)c1` [dopamine], the LC retention time came to 0.712 min. Consider `CNCC(O)c1ccc(O)c(O)c1` (stereo not given) [epinephrine], for which the LC retention time amounted to 0.564 min.

With `NCCCC(=O)O` [gamma-aminobutyric acid], the LC retention time was 0.491 min. Still for that read-out and setting: the same measure for `CC(CCC(=O)NCC(=O)O)C1CCC2C3C(O)CC4CC(OC5OC(C(=O)O)C(O)C(O)C5O)CCC4(C)C3CCC12C` (stereo not given) [glycochenodeoxycholic acid 3-glucuronide]: 4.34 min; for `O=C(O)C1OC(Oc2ccc(O)cc2)C(O)C(O)C1O` (stereo not given) [hydroquinone-glucuronide]: 0.91 min; for `CS(=O)CCCN=C=S` (stereo not given) [iberin]: 3.24 min. In the case of `O=C(Cc1c[nH]c2ccccc12)OC1OC(C(=O)O)C(O)C(O)C1O` (stereo not given) [indole-3-acetic acid-glucuronide], the LC retention time came out at 3.46 min.

As to `O=C(O)CNC(=O)C=Cc1c[nH]c2ccccc12` [indole-3-acryloylglycine], the LC retention time is 3.56 min. As to `O=C(OC1OC(C(=O)O)C(O)C(O)C1O)c1c[nH]c2ccccc12` (stereo not given) [indole-3-carboxylic acid glucuronide], the LC retention time came out at 3.42 min.

With `CC(C)CC(=O)NCC(=O)O` [isovalerylglycine], the LC retention time is 2.74 min. For the molecule `CC12C=Cc3occc3C1CCC13CC(CCC12)C(O)(CO)C3` (stereo not given) [kahweol], the LC retention time was determined as 3.81 min. On the same count and under the same terms, the same measure for `c1coc(CNc2ncnc3nc[nH]c23)c1` [kinetin]: 3.03 min; for `C[N+](C)(C)CC(O)CC(=O)[O-]` (stereo not drawn) [l-carnitine inner salt]: 0.457 min. Turning to `O=c1cc(-c2ccc(O)c(O)c2)oc2cc(O)cc(O)c12` [luteolin], the LC retention time amounted to 3.75 min.

Regarding `C[NH+]1CC(O)CC1C(=O)[O-]` (stereo not given) [n-methyl-4-hydroxyproline], the LC retention time stood at 0.498 min. Take `CCCCCCCC(=O)OC1OC(C(=O)O)C(O)C(O)C1O` (stereo not given) [octanoic acid glucuronide]: the LC retention time is 3.92 min. Take `CCCCCCCCC=CCCCCCCCC(N)=O` [oleamide]: the LC retention time turned out to be 4.81 min. Take `CCC=CCC=CCC=CCC=CCC=CCC=CCCC(=O)OC(COC(=O)CCCCCCCCCCCCCCCCC)COP(=O)([O-])OCC[N+](C)(C)C` (stereo not given) [pc(18:0/22:6)]: the LC retention time was 5.51 min. As for `C=C(C)C1CC=C(C(=O)O)CC1` (stereo not given) [perillic acid], the LC retention time came to 3.81 min. `O=C(O)CNC(=O)Cc1ccccc1` [phenylacetylamino-acetic acid]: the LC retention time came out at 3.38 min. For `O=C(O)C1CCCCN1` (stereo not given) [pipecolinic acid], the LC retention time was 0.62 min. Regarding `C[N+]1(C)CCCC1C(=O)[O-]` (stereo not given) [proline betaine], the LC retention time worked out at 0.543 min. With `O=C(O)c1ccc[nH]1` [pyrrole-2-carboxylic acid], the LC retention time amounted to 2.61 min.

For `O=c1c(O)c(-c2ccc(O)c(O)c2)oc2cc(O)cc(O)c12` [quercetin], the LC retention time turned out to be 3.74 min.

For the molecule `CC(=O)NC(CSC(=S)NCCCCS(C)=O)C(=O)O` (stereo not given) [sulforaphane-n-acetylcysteine], the LC retention time was found to be 3.24 min.

In the case of `CC12CCC(=O)C=C1CCC1C2CCC2(C)C(O)CCC12` (stereo not given) [testosterone], the LC retention time came to 4.32 min. As to `O=C(O)/C=C/c1cccc(O)c1` [trans-3-hydroxycinnamic acid], the LC retention time was 3.53 min. For the molecule `CC(C)C(N)C(=O)O` (stereo not given) [valine], the LC retention time was found to be 0.546 min.

Another data set can be described thus: RP, Waters ACQUITY UPLC BEH C18, 100 × 2.1 mm, 1.7 µm; A: water + 0.1% formic acid, pH 3; B: 80% acetonitrile + 20% acetone + 0.1% formic acid, pH 3; gradient (min/%B) 0/0 6/100. The note with it: stereoisomer not certain.
In the case of `O=c1[nH]cc(C2OC(CO)C(O)C2O)c(=O)[nH]1` (stereo not given), the LC retention time came to 1.16 min.

For `NC(CCCNC1=NCC(=O)N1)C(=O)O` (stereo not given), the LC retention time was 0.561 min. For the molecule `CC1NC(=NCCCC(N)C(=O)O)NC1=O` (stereo not given), the LC retention time is 0.585 min.

On to `Nc1c(O)cccc1C(=O)CC(N)C(=O)O` (racemic) [3-hydroxy-dl-kynurenine], for which the LC retention time amounted to 1.03 min. Same read-out and setting: the same measure for `NC(CCCC(=O)O)C(=O)O` (racemic) [dl-2-aminoadipic acid]: 0.657 min. For `O=C(O)C(O)Cc1c[nH]c2ccccc12` (racemic) [dl-3-indolelactic acid], the LC retention time was 2.13 min. In the case of `CN1C(=O)CCC1c1cccnc1` (single isomer, unassigned; (-)) [(-)-Cotinine], the LC retention time amounted to 1.26 min. On the same count and under the same terms, the same measure for `Cn1c(=O)[nH]c2ncn(C)c2c1=O` [1,7-dimethylxanthine]: 1.45 min. Same read-out and setting: the same measure for `Cn1cnc(C[C@H](N)C(=O)O)c1` [1-Methyl-L-Histidine]: 0.531 min; for `Cn1cnc2c(ncn2C2OC(CO)C(O)C2O)c1=N` (stereo not given) [1-methyladenosine]: 1.3 min. Consider `Cn1c(=O)[nH]c2[nH]c(=O)[nH]c2c1=O` [1-methyluric acid], for which the LC retention time was determined as 1.28 min. Same read-out and setting: the result for `NC(CCCC(N)C(=O)O)C(=O)O` (stereo not given) [2,6-diaminopimelic acid] reads 0.543 min; that for `Nc1ccn(C2OC(CO)C(O)C2O)c(=S)n1` (stereo not given) [2-thiocytidine dihydrate], 0.986 min; that for `CC(C)(O)CC(=O)O` [3-hydroxy-3-methyl butanoic acid], 1.44 min. Turning to `Cn1c(=N)ccn(C2OC(CO)C(O)C2O)c1=O` (stereo not given) [3-methylcytidine methosulfate], the LC retention time was found to be 0.986 min. As for `Cn1c(=O)[nH]c(=O)c2[nH]cnc21` [3-methylxanthine], the LC retention time was determined as 1.28 min.

In the case of `CC(=O)Nc1ccc(C(=O)O)cc1` [4-acetamidobenzoic acid], the LC retention time came out at 1.71 min. `O=Cc1ccc(O)cc1` [4-hydroxybenzaldehyde]: the LC retention time was 1.91 min. For `Cc1cn(C2OC(CO)C(O)C2O)c(=O)nc1N` (stereo not given) [5-methylcytidine], the LC retention time was 1.28 min. In the case of `COc1cc2c(CCNC(C)=O)c[nH]c2cc1O` [6-hydroxymelatonin], the LC retention time was determined as 1.81 min. Consider `Cn1c[n+](C2OC(CO)C(O)C2O)c2nc(N)[nH]c(=O)c21` (stereo not given) [7-methylguanosine], for which the LC retention time turned out to be 1.17 min. On to `O=C(O)C(O)Cc1ccc(O)cc1` (stereo not drawn) [(DL)-p-hydroxyphenyllactic acid], for which the LC retention time stood at 1.54 min. `Nc1ncnc2nc[nH]c12` [Adenine]: the LC retention time was found to be 0.685 min.

With `Nc1ncnc2c1ncn2C1OC(CO)C(O)C1O` (stereo not given) [Adenosine], the LC retention time was 1.34 min. Turning to `O=C(O)CCCCC(=O)O` [Adipic acid], the LC retention time was 1.5 min. The same measure, in the same setting: the same measure for `O=C(O)CCCCCCCC(=O)O` [Azelaic acid]: 2.26 min; for `CC(NCCCCC(N)C(=O)O)C(=O)O` (stereo not given) [CEL]: 0.571 min; for `Cn1c(=O)c2c(ncn2C)n(C)c1=O` [Caffeine]: 1.65 min.
